These results are taken from patent US20050042209A1, “MUC1 extracellular domain and cancer treatment compositions and methods derived therefrom” (priority 2000, published 2005).

d = 2'-deoxy (DNA); r = 2'-OH (RNA)

The subject of data set [1] is MUC1.
Experimental: Cell Culture: Human MCF-7 breast carcinoma and HeLa cervical carcinoma cella (obtained form the ATCC, Manassas, Va.) were grown in DMEM (high glucose; Mediatech, Cellgrow) supplemented with 10% heat-inactivated fetal calf serum (FCS) and 2 mM L-glutamate.
Immunoblot analysis: Cells were lysed in ice-cold lysis buffer (20 mM Tris-HCl, pH 8.0, 150 mM NaCl, 1% Triton-X-100, 1 mM phenylsulfonyl fluoride, 1 mM DTT, 10 μgm/ml aprotinin) for 30 min. Lysates were cleared by centrifugation for 20 min. at 4° C. as described (Yin et al, 2001). Proteins were separated by SDS-PAGE, transferred to nitrocellulose and probed with anti-DF3/MUC1 (Kufe, U.S. Pat. No. 5,506,34) or anti-β-actin (Sigma). The antigen-antibody complexes were visualized by enhanced chemiluminescence (ECL; Amersham Life Sciences).
CDDO downregulates MUC1 expression: MUC1-positive cells were treated with CDDO at concentrations of 1, 3 and 5 μM.
A further data set deals with intracellular ROS. The settings on record: NAC pretreatment.
In the next data set the test system is MUC1 DF3 antigen. The data set is described as follows: DF3 antigen levels by immunoblot after NM-3. The data set is classed as cell-based, human. How it is done: MCF-7 cells were treated with NM-3 (2-(8-hydroxy-6-methoxy-1-oxo-1 H-2-benzopyran-3-yl)propionic acid) at 100-400 μg/ml for 48 hr. DF3 antigen levels were visualized by immunoblot analysis with DF3 MAb (Kufe, U.S. Pat. No. 5,506,343, herein incorporated by reference).
A decrease in the intracellular levels of DF3 antigen of NM-3 treated cells relative to non-treated cells was observed. […] To determine whether NM-3 impaired the extracellular localization of the MUC1 DF3 antigen, the antigen levels in cell culture medium supernatants and on MCF-7 cells after NM-3 treatment were investigated. The levels of DF3 antigen were reduced in both localizations.
In general terms: A western blot detects proteins with antibodies after separation by electrophoresis.

Data set [2] deals with epidermal growth factor receptor (EGF-R). The data set is described as follows: EGF-R expression after NM-3. The data set is classed as cell-based, human. Particulars: MCF-7, ZR-75-1 and BT-20 cell lines. The protocol: To determine whether NM-3 inhibits the expression of cellular surface proteins as well, the level of epidermal growth factor receptor (EGF-R) expression after NM-3 treatment was tested on MCF-7, ZR-75-1 and BT-20 cell lines.

Data set [3] deals with MUC1. The data set is described as follows: MUC1 induction by oxidative and genotoxic stress (immunoblot). The protocol:
To determine whether MUC1 is induced in response to oxidative stress, MCF-7 cells were treated with hydrogen peroxide. Cell lysates were analyzed by immunoblotting with anti-DF3/MUC1 antibody. Lysates were prepared by suspending MCF-7 cells in lysis buffer (50 mM Tris, pH 7.6, 150 mM NaCl, 1 mM PMSF, 3 mM NaF, 1 mM sodium vandate, 1 mM DTT with protease inhibitors and either 1% NP-40 or 1% Brij-96) for 30 min. on ice. Lysates were cleared by centifugation and equal amounts of proteins were resolved by SDS-PAGE. Proteins were then transferred to nitrocellulose filters, blocked by incubation in 5% non-fat dry milk in PBS with 0.05% Tween-20 and probed with anti-MUC1 antibody (Pandey et al., 1995). Anti-actin was used as a control.
Similar studies were performed with genotoxic agents.

A further data set relates to HeLa cells. Particulars: HeLa/MUC1 vs HeLa/V, FIG. 4.
In data set [4] the test system is MUC1. Nature of the data set: Western blot of MUC1 after siRNA transfection. The data set is classed as cell-based, human. Particulars: siRNA 0.2 micromolar. From the text:
Cell Culture: Human MCF-7 breast cancer cells were maintained in DMEM supplemented with 10% heat inactivated fetal bovine serum (FBS) and 1% penicillin-streptomycin mixture. Human A549 non-small cell lung cancer cells were maintained in RPMI1640 medium supplemented with 10% FBS and 1% penicillin-streptomycin mixture.
(§1) siRNAs: Five different double stranded anti-MUC1 siRNAs were designed: one against the target sequence SEQ ID NO: 63, i.e., […], with sense and antisense strands as shown in SEQ ID NO: 64 and SEQ ID NO: 65 respectively (hereinafter siRNA #1); one against the target sequence SEQ ID NO: 42, i.e., […], with sense and antisense strands as shown in SEQ ID NO: 43 and SEQ ID NO: 44 respectively (hereinafter siRNA #2); one against the target sequence SEQ ID NO: 21, i.e., […], with sense and antisense strands as shown in SEQ ID NO: 22 and SEQ ID NO: 23 respectively (hereinafter siRNA #3); one against the target sequence SEQ ID NO: 66, i.e., […], with sense and antisense strands as shown by SEQ ID NO: 67 and SEQ ID NO: 68 respectively (hereinafter siRNA #4); and one against target sequence SEQ ID NO: 69, i.e., […], with sense and antisense strands as shown by SEQ ID NO: 70 and SEQ ID NO: 71 respectively (hereinafter siRNA #5). A control siRNA was designed against the scrambled target SEQ ID NO: 72 with sense and antisense strands as shown by SEQ ID NO: 73 and SEQ ID NO: 74 respectively. Each RNA sense oligonucleotide (50 μM) was combined with equal volume of antisense oligonucleotide (50 μM) in an annealing buffer (20 mM KCl, 6 mM HEPES-KOH, pH 7.5, 0.2 mM MgCl2). The solution was incubated for 1 min at 90° C. to denature secondary structure, and placed at 37° C. for 1 hour to anneal the complementary strands. The subsequent double stranded RNAs were used as the anti-MUC1 siRNA.
Transfection: Cells (1-3×10^5 cells/well) were plated in 6-well plates in growth medium without antibiotics, and incubated overnight. After washing cells once with Opti-MEM I (Invitrogen), 800 μL of fresh Opti-MEM I and 200 μL of the Reagent (Invitrogen) were added to the cultured cells. Four hours later, 300 μL of FBS was added to the cultured cells.
Western Blot Analysis: Cell were passed a day before transfection. MUC1 siRNA (0.2 micromolar) was added with oligofectamine to cells in 0% FBS. Four hours later serum was added to a final concentration of 10%. After various time intervals (48 h, 72 h and 96 h), cells were washed and total cell lysates were prepared. Proteins were separated from cell lysates by SDS-PAGE, transferred to nitrocellulose and analyzed by immunoblotting with anti-DF3 antibodies.

In another data set the test system is MUC1 RNA. The data set is described as follows: RT-PCR of MUC1 RNA after siRNA transfection. The data set is classed as cell-based, human. Particulars: FIG. 5.
Source text: as §1
RT-PCR: Total RNA was extracted and purified from cultured cells using RNAzol B according the manufacturer's instructions. The RNA was quantified by determining absorbance at 260 nm. One μg of total RNA from each sample was reverse transcribed into cDNA using Thermoscript reverse transcriptase (Invitrogen) in a volume of 20 μL. The cDNA product was amplified by PCR using Platinum Taq DNA polymerase (Invitrogen) and specific primers for MUC1 and beta-actin as an internal control. The sequences of primers used were as follows; • MUC1 (forward, 5′-[…]-3′; reverse, 5′-[…]-3′) and beta-actin (forward, 5′-[…]-3′; reverse, 5′-[…]-3′).
The reaction was performed using the following program: 94° C. for 2 min, 29 cycles (25 cycles for beta-actin) at 94° C. for 2 min, 48° C. for 1 min, 72° C. for 30s and then additional extension step of 72° C. for 10 min. The PCR products were separated on a 2% agarose gel, stained with ethidium bromide and photographed under UV light.

The subject of data set [5] is A549 cells. The data set is described as follows: Proliferation of A549 cells. The data set is classed as cell-based, human. Particulars: transfection of siRNA; FIG. 8. The protocol: (§2) Cell culture: Human non-small cell lung cancer A549 cells were grown in RPMI1640 medium supplemented with 10% fetal bovine serum (FBS), 100 units/ml of penicillin and 100 μg/ml of streptomycin, respectively.
Transfection with siRNA: Cells (3×10^5 cells/well) were plated in 6-well plates in growth medium without antibiotics, and incubated overnight. Cells were then transfected with MUC1 siRNAs, siRNA #1, i.e., one against the target sequence SEQ ID NO: 63, i.e., […] with sense and antisense strands as shown in SEQ ID NO: 64 and SEQ ID NO: 65 respectively; and siRNA #2, i.e., one against the target sequence SEQ ID NO: 42, i.e., […] with sense and antisense strands as shown in SEQ ID NO: 43 and SEQ ID NO: 44 respectively, and one control siRNA directed towards the non-specific gene target […] using Oligofectamine reagent (Invitrogen) according to the manufacturer's instructions. After 24 hr of transfection, the medium was changed to complete medium containing antibiotics.
(§3) Treatment of Cells with cisplatinum (CDDP): At 72 hr post transfection of siRNAs, 10 μM CDDP was added to the cells in fresh culture medium. After 48 hr of CDDP exposure cells were trypsinized and analyzed for MUC1 expression and apoptosis as described below.

Data set [6] relates to A549 cells. Nature of the data set: Apoptosis assay (Annexin V-FITC/PI) in A549 cells. The data set is classed as cell-based, human. Particulars: FIG. 7. The protocol: as §2
Transfection with siRNA: Cells (3×10^5 cells/well) were plated in 6-well plates in growth medium without antibiotics, and incubated overnight. […]
as §3
Apoptosis assay.: A549 cells were initially stained for MUC1 expression using the DF3 monoclonal antibody (Kufe, U.S. Pat. No. 5,506,343, herein incorporated by reference). […] The amount of DF3 staining was then measured using a biotinylated goat anti-mouse secondary antibody (diluted 1:200 in staining buffer) and streptavidin-conjugated phycoerythrin (diluted 1:50 in staining buffer). After fluorescent staining for MUC1 expression, apoptosis was determined by staining cells with Annexin V-FITC and propidium iodide (PI). […] Using a flow cytometer, (EPICS XL-MCL, Coulter Corp), the amount of MUC1 expressing cells were determined using the FL2 detector, annexin V-FITC staining was measured in the FL1 detector and propidium iodide staining was measured in the FL3 detector. […]

Experimental for HeLa cells: DNA content was assessed by staining ethanol-fixed cells with propidium iodide and monitoring by FACScan (Beckton Dickerson). Numbers of cells with sub-G1 DNA content were determined with a MODFIT LT program, (Verity Software House, Topsham, Me.) (Yuan et al., 1997). The cells were analyzed for induction of sub-G1 DNA by flow cytometry as a marker of apoptosis.
The induction of apoptosis in cells treated with 0.01 mM taxol for 20 hr was assessed by measuring sub-G1 DNA content of HeLa cells expressing empty vector or MUC1.
Experimental for intracellular ROS: Measurement of ROS levels: Cells were incubated with 10 mM DCF-DA Sigma) for 15 min. at 37° C. to assess ROS-mediated oxidation of the fluorescent compound DCF (LeBel et al., 1992). Fluorescence of oxidized DCF was measured at an excitation wavelength of 480 nm and an emission wavelength of 525 nm using a flow cytometer (Beckton Dickerson, Lincoln Park, N.J.).
As a control, cells were incubated with NAC, a scavenger of ROS.

Regarding `CC(=O)N[C@@H](CS)C(=O)O` [NAC, N-acetylcysteine], the “CDDO-, CDDO-Me-, CDDO-Im- and CDDO-Pr-Im-induced decreases in MUC1” value in the data set on MUC1 [1] (cells treated with antioxidant) is “blocked”. In the data set on MUC1 [1] (with NAC), the “H2O2-induced downregulation of MUC1” value was “reversed”. In addition, in the data set on intracellular ROS, the “CDDO-induced ROS production” value is “abrogation”.
`COc1cc(O)c2c(=O)oc(C(C)C(=O)O)cc2c1` (centres unmarked) [NM-3, 2-(8-hydroxy-6-methoxy-1-oxo-1 H-2-benzopyran-3-yl)propionic acid]: the “levels of DF3 antigen in cell culture medium supernatants and on MCF-7 cells” value in the data set with MUC1 DF3 antigen (MCF-7 cells after NM-3 treatment) is on record as “reduced”. The “intracellular levels of DF3 antigen” value with MUC1 DF3 antigen (MCF-7 cells, 100-400 μg/ml for 48 hr, relative to non-treated cells) is recorded as “decrease”. Besides, the EGF-R expression entry in data set [2] is “no detectable changes”.
Turning to `OO` [hydrogen peroxide], the “MUC1 expression (immunoblot)” value in the data set with MUC1 [3] (MCF-7 cells) was “rapidly and transiently induced”. For the same compound, the “apoptotic response (sub-G1 DNA), effect of MUC1” value in the data set with HeLa cells (1 mM hydrogen peroxide for 1 hr) is “MUC1 inhibits the apoptotic response”. Also, the MUC1 expression entry in the data set with MUC1 [1] (0.1 mM H2O2) is listed as “downregulation of MUC1”.
As for `CC(=O)O[C@H]1C(=O)[C@@]2(C)[C@H]([C@H](OC(=O)c3ccccc3)[C@]3(O)C[C@H](OC(=O)[C@H](O)[C@@H](NC(=O)c4ccccc4)c4ccccc4)C(C)=C1C3(C)C)[C@]1(OC(C)=O)CO[C@@H]1C[C@@H]2O` [taxol], the “MUC1 induction by diverse cytotoxic agents” value in the data set with MUC1 [3] (available evidence, cells not given) is “induced”. For the same compound, in the data set with HeLa cells (0.01 mM taxol for 20 hr), the “induced apoptosis (sub-G1 DNA), effect of MUC1” value is given as “inhibited by MUC1 expression”.
Consider “siRNA #1: double stranded anti-MUC1 siRNA, target SEQ ID NO: 63, sense SEQ ID NO: 64, antisense SEQ ID NO: 65 (sense GGGGGUUUUCUGGGCCUCUTT; antisense AGAGGCCCAGAAAACCCCCTT; sugars from the 5' end r19 d2, backbone not given here)”, for which the “MUC1 expression at the protein level (immunoblot)” value is listed as “downregulate MUC1 expression” with MUC1 [4] (A549 cells, FIG. 5) and “downregulate MUC1 expression” in the data set on MUC1 [4] (MCF-7 cells, FIG. 5, FIG. 6). Further, the “MUC1 expression at the RNA level (RT-PCR)” value in the data set on MUC1 RNA (A549 cells) and in the data set with MUC1 RNA (MCF-7 cells) was “downregulate MUC1 expression” throughout. In the data set with A549 cells [5], the “proliferation of A549 cells” value is recorded as “decreased the proliferation”.
As to “siRNA #2: double stranded anti-MUC1 siRNA, target SEQ ID NO: 42, sense SEQ ID NO: 43, antisense SEQ ID NO: 44 (sense GGUACCAUCAAUGUCCACGTT; antisense CGUGGACAUUGAUGGUACCTT; sugars from the 5' end r19 d2, backbone not given here)”, the “MUC1 expression at the protein level (immunoblot)” value in the data set on MUC1 [4] (A549 cells, FIG. 5) is recorded as “downregulate MUC1 expression”; with MUC1 [4] (MCF-7 cells, FIG. 5, FIG. 6), “downregulate MUC1 expression”. The “MUC1 expression at the RNA level (RT-PCR)” value in the data set on MUC1 RNA (A549 cells) and with MUC1 RNA (MCF-7 cells) was “downregulate MUC1 expression” throughout. Further, the “percentage of apoptotic cells” value in the data set with A549 cells [6] (A549 cells transfected with siRNA, relative to controls) is reported as “increase”. Moreover, the “percentage of apoptotic cells, combination” value in the data set with A549 cells [6] (A549 cells, siRNA 72 hr then 10 μM CDDP 48 hr) is “more than additively enhances”. Moreover, in the data set on A549 cells [5], the “proliferation of A549 cells” value is given as “decreased the proliferation”.
